Among the data in patent publication US20230183243A1, “HETEROARYL DERIVATIVES AND PHARMACEUTICAL COMPOSITION COMPRISING SAME AS ACTIVE INGREDIENT” (VORONOI INC., priority 2019, published 2023) are GI50 and IC50 values, retold here.

The subject of one experiment is MDA-MB-231 cells. Put plainly: Inhibition of proliferation of triple-negative breast cancer cells, CellTiter-Glo. Format: cell-based. As to conditions: Homo sapiens, 120 h; MDA-MB-231, cultured for 5 days. An outline of the steps:
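MDA-MB-231 cells pre-cultured 24 h (5% CO2, 37 °C), then exposed to compound for 5 days at 12 three-fold dilutions, final 10 μM to 0.05 nM. Viability read by CellTiter-Glo luminescence after 10 min at 37 °C; growth inhibition calculated relative to untreated solvent-control cells.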
For orientation: In ATP-based viability assays light output follows the ATP content of the culture.

For a further experiment, the system named is SHP-77. Put plainly: Inhibition of proliferation of small cell lung cancer cells, CellTiter-Glo. The class given is cell-based. As to conditions: Homo sapiens, SHP77, 120 h; SHP-77, cultured for 5 days. An outline of the steps:
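SHP-77 cells at 2,000–3,000 cells/well, cultured 24 h at 37° C, 5% CO2, then given 12 threefold compound dilutions, final 10 μM to 0.05 nM, for 5 days. Viability by CellTiter-Glo luminescence relative to solvent control. GI50 from concentration–response.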

A further experiment addresses T1, TTK (Homo sapiens, UniProt P33981).
T1 sequence (P33981 1-857): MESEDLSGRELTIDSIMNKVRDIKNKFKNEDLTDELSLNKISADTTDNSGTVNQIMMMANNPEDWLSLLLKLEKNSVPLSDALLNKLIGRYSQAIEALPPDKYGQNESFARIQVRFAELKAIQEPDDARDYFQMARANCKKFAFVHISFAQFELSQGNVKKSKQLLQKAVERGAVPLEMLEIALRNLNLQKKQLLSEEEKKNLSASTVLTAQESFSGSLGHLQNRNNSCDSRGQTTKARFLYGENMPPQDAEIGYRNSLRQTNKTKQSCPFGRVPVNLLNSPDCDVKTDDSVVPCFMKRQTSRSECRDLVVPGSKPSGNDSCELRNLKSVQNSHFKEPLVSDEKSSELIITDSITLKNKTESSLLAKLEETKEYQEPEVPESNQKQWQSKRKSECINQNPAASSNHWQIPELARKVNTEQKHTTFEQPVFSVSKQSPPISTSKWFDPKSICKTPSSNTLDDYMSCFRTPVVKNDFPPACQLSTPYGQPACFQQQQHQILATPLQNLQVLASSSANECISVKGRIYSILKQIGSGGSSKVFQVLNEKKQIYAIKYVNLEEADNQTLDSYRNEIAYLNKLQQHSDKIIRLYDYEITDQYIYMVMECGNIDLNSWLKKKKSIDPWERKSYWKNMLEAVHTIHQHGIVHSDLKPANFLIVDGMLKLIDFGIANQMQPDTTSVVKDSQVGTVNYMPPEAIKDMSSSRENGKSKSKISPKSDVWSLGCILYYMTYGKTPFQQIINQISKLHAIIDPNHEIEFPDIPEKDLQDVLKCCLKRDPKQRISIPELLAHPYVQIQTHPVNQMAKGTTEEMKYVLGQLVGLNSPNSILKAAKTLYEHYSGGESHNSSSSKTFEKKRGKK
Put plainly: TTK enzyme activity, ADP-Glo kinase assay. The class given is biochemical. Also on record: purchased SignalChem T20-10G. As to conditions: purified human TTK, ATP 10 μM, 25° C., 2 hours. An outline of the steps: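 Purified human TTK (25 ng) incubated with 10 μM ATP and substrate (0.2 μg) for 2 h at 25 °C in Tris-HCl pH 7.4, MgCl2, BSA, DTT buffer. ADP formation read by ADP-Glo; inhibition calculated against untreated solvent control.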
A general note: In ADP-Glo the light output rises with the ADP produced.

Some results are limits rather than exact numbers.

For orientation: GI50 means the concentration that inhibits growth by half. A word on the IC50: it is the concentration that gives 50% inhibition. Low readings indicate inhibition by little substance, high ones a need for much substance. Turning to `Cn1cc(-c2ccc(Nc3nc(NC4CCC(F)(F)C4)c4c(C#N)c[nH]c4n3)c3c2OCCO3)cn1` (stereo not drawn) [Example 159, 4-((3,3-difluorocyclopentyl)amino)-2-((8-(1-methyl-1H-pyrazol-4-yl)-2,3-dihydrobenzo[b][1,4]dioxin-5-yl)amino)-7H-pyrrolo[2,3-d] pyrimidine-5-carbonitrile], the concentration for 50% growth inhibition (GI50) with MDA-MB-231 cells and in the experiment on SHP-77 was below 100 nM each time. This molecule yielded a half-inhibitory concentration (IC50) at TTK below 50 nM.

In the case of `COc1cc(Nc2nc(NC3CCOC(C)(C)C3)c3c(C#N)c[nH]c3n2)ccc1-c1ccnn1C` (stereo not drawn) [Example 162, 4-((2,2-dimethyltetrahydro-2H-pyran-4-yl)amino)-2-((3-methoxy-4-(1-methyl-1H-pyrazol-5-yl)phenyl)amino)-7H-pyrrolo[2,3-d] pyrimidine-5-carbonitrile], the GI50 in the experiment with MDA-MB-231 cells and in the experiment on SHP-77 was below 100 nM throughout. For the same molecule, the IC50 at TTK is below 50 nM.

`COc1cc(N2CCCCS2(=O)=O)ccc1Nc1nc(NC2CCOCC2)c2c(C#N)c[nH]c2n1` [Example 163, 2-((4-(1,1-dioxido-1,2-thiazinan-2-yl)-2-methoxyphenyl)amino)-4-((tetrahydro-2H-pyran-4-yl)amino)-7H-pyrrolo[2,3-d] pyrimidine-5-carbonitrile]: the concentration for 50% growth inhibition (GI50) with MDA-MB-231 cells and in the experiment on SHP-77 was below 100 nM each time. At TTK, this molecule had a 50% inhibitory concentration (IC50) below 50 nM.

With `N#Cc1c[nH]c2nc(Nc3ccc(N4CCCCS4(=O)=O)cc3)nc(NC3CCOCC3)c12` [Example 164, 2-((4-(1,1-dioxido-1,2-thiazinan-2-yl)phenyl)amino)-4-((tetrahydro-2H-pyran-4-yl)amino)-7H-pyrrolo[2,3-d] pyrimidine-5-carbonitrile], the GI50 in the experiment on MDA-MB-231 cells and in the experiment with SHP-77 was below 100 nM in each case. On TTK, the IC50 is below 50 nM.

Turning to `COc1cc(N2CCCS2(=O)=O)ccc1Nc1nc(NC2CCOCC2)c2c(C#N)c[nH]c2n1` [Example 165, 2-((4-(1,1-dioxidoisothiazolidin-2-yl)-2-methoxyphenyl)amino)-4-((tetrahydro-2H-pyran-4-yl)amino)-7H-pyrrolo[2,3-d] pyrimidine-5-carbonitrile], the GI50 in the experiment on MDA-MB-231 cells and with SHP-77 was below 100 nM each time. The same molecule gave an IC50 on TTK below 50 nM.

Turning to `N#Cc1c[nH]c2nc(Nc3ccc(N4CCCS4(=O)=O)cc3)nc(NC3CCOCC3)c12` [Example 166, 2-((4-(1,1-dioxidoisothiazolidin-2-yl)phenyl)amino)-4-((tetrahydro-2H-pyran-4-yl)amino)-7H-pyrrolo[2,3-d] pyrimidine-5-carbonitrile], the concentration for 50% growth inhibition (GI50) with MDA-MB-231 cells and in the experiment with SHP-77 was below 100 nM in each case. Further, at TTK, the concentration for half-maximal inhibition (IC50) was below 50 nM.

Turning to `COC[C@@H](C)Nc1nc(Nc2ccc(-n3ccnc3C)cc2OC)nc2[nH]cc(C#N)c12` [Example 167, (R)-2-((2-methoxy-4-(2-methyl-1H-imidazol-1-yl)phenyl)amino)-4-((1-methoxypropan-2-yl)amino)-7H-pyrrolo[2,3-d] pyrimidine-5-carbonitrile], the GI50 with MDA-MB-231 cells and in the experiment with SHP-77 was below 100 nM throughout. The same molecule displayed an IC50 at TTK below 50 nM.

`COC[C@@H](C)Nc1nc(Nc2ccc(-c3ccnn3C)cc2OC)nc2[nH]cc(C#N)c12` [Example 168, (R)-2-((2-methoxy-4-(1-methyl-1H-pyrazol-5-yl)phenyl)amino)-4-((1-methoxypropan-2-yl)amino)-7H-pyrrolo[2,3-d] pyrimidine-5-carbonitrile]: the GI50 in the experiment on MDA-MB-231 cells and in the experiment on SHP-77 was below 100 nM each time. Besides, at TTK, the IC50 was below 50 nM.

Take `COC[C@@H](C)Nc1nc(Nc2ccc(-c3cnn(C)c3)c3c2OCCO3)nc2[nH]cc(C#N)c12` [Example 169]: the GI50 with MDA-MB-231 cells and in the experiment with SHP-77 was below 100 nM each time. Also, the IC50 on TTK is below 50 nM.

Take `N#Cc1c[nH]c2nc(Nc3cccc4c3OCCO4)nc(NC3CCOCC3)c12` [Example 170, 2-((2,3-dihydrobenzo[b][1,4]dioxin-5-yl)amino)-4-((tetrahydro-2H-pyran-4-yl)amino)-7H-pyrrolo[2,3-d] pyrimidine-5-carbonitrile]: the GI50 in the experiment on MDA-MB-231 cells and in the experiment on SHP-77 was below 100 nM throughout. The molecule further showed a concentration for half-maximal inhibition (IC50) against TTK below 50 nM.

Take `CC1(C)CC(Nc2nc(Nc3cccc4c3OCCO4)nc3[nH]cc(C#N)c23)CCO1` (stereo not drawn) [Example 171]: the GI50 in the experiment with MDA-MB-231 cells and in the experiment with SHP-77 was below 100 nM throughout. In addition, on TTK, the IC50 was below 50 nM.

As to `Cn1nccc1-c1ccc(Nc2nc(NC3CCOC(C)(C)C3)c3c(C(F)(F)F)c[nH]c3n2)c2c1OCCO2` (stereo not drawn) [Example 172, N^4-(2,2-dimethyltetrahydro-2H-pyran-4-yl)-N^2-(8-(1-methyl-1H-pyrazol-5-yl)-2,3-dihydrobenzo[b][1,4]dioxin-5-yl)-5-(trifluoromethyl)-7H-pyrrolo[2,3-d] pyrimidine-2,4-diamine], the GI50 in the experiment on MDA-MB-231 cells and with SHP-77 was below 100 nM throughout. The molecule also came in with a half-maximal inhibitory concentration (IC50) at TTK below 50 nM.

In the case of `N#Cc1c[nH]c2nc(Nc3ccc(N4CCCS4(=O)=O)c(F)c3)nc(NC3CCCC3)c12` [Example 173, 4-(cyclopentylamino)-2-((4-(1,1-dioxidoisothiazolidin-2-yl)-3-fluorophenyl)amino)-7H-pyrrolo[2,3-d] pyrimidine-5-carbonitrile], the GI50 in the experiment on MDA-MB-231 cells is 100 to 1000 nM; in the experiment on SHP-77, below 100 nM. Further, the IC50 on TTK was below 50 nM.

For `COc1cc(N2CCCS2(=O)=O)ccc1Nc1nc(NC2CCOCC2)c2c(C(F)(F)F)c[nH]c2n1` [Example 174, 2-(3-methoxy-4-((4-((tetrahydro-2H-pyran-4-yl)amino)-5-(trifluoromethyl)-7H-pyrrolo[2,3-d]pyrimidin-2-yl)amino)phenyl)isot hiazolidine 1,1-dioxide], the GI50 in the experiment on MDA-MB-231 cells and in the experiment with SHP-77 was below 100 nM each time. At TTK, this molecule gave an IC50 below 50 nM.

As for `COc1cc(N2CCCCS2(=O)=O)ccc1Nc1nc(NC2CCOCC2)c2c(C(F)(F)F)c[nH]c2n1` [Example 175, 2-(3-methoxy-4-((4-((tetrahydro-2H-pyran-4-yl)amino)-5-(trifluoromethyl)-7H-pyrrolo[2,3-d]pyrimidin-2-yl)amino)phenyl)-1,2-thiazinane 1,1-dioxide], the 50% growth inhibitory concentration (GI50) in the experiment with MDA-MB-231 cells and with SHP-77 was below 100 nM in each case. For the same molecule, the IC50 against TTK is below 50 nM.

For the molecule `COc1cc(N2CCCS2(=O)=O)ccc1Nc1nc(NC2CCCC2)c2c(C(F)(F)F)c[nH]c2n1` [Example 176, 2-(4-((4-(cyclopentylamino)-5-(trifluoromethyl)-7H-pyrrolo[2,3-d]pyrimidin-2-yl)amino)-3-methoxyphenyl) isothiazolidine 1,1-dioxide], the GI50 in the experiment on MDA-MB-231 cells and in the experiment on SHP-77 was 100 to 1000 nM in each case. Further, the IC50 against TTK fell in the range of 50 to 200 nM.

With `COc1cc(N2CCCCS2(=O)=O)ccc1Nc1nc(NC2CCCC2)c2c(C(F)(F)F)c[nH]c2n1` [Example 177, 2-(4-((4-(cyclopentylamino)-5-(trifluoromethyl)-7H-pyrrolo[2,3-d]pyrimidin-2-yl)amino)-3-methoxyphenyl)-1,2-thiazinane 1,1-dioxide], the GI50 in the experiment on MDA-MB-231 cells and in the experiment with SHP-77 was 100 to 1000 nM each time. The molecule further yielded a concentration for half-maximal inhibition (IC50) at TTK of 50 to 200 nM.
